The values that follow come from patent publication US20100204231A1, “AMINO-THIAZOLYL-PYRIMIDINE DERIVATIVES AND THEIR USE FOR THE TREATMENT OF CANCER” (ASTRAZENECA AB, priority 2007, published 2010).

The target in the assay is T1, C-terminal His6-tagged, recombinant, human JAK2, amino acids 808-end (Homo sapiens, UniProt O60674).
T1 construct: human JAK2, amino acids 808-end; His6 (C); purchased Upstate Biotechnology; host or cells: baculovirus in Sf21 cells
T1 sequence (O60674 808-1132 limits assumed): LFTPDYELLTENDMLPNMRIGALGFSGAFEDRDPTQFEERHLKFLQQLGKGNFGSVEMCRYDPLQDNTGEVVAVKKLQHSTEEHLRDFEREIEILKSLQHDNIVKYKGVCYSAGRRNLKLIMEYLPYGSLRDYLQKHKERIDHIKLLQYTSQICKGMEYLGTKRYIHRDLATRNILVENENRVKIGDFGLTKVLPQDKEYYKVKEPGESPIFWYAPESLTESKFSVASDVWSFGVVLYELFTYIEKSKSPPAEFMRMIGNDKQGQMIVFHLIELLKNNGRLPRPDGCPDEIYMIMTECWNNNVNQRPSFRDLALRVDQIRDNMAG
In words: JAK2 kinase activity assay (Alphascreen). Type of assay: biochemical. Particulars: 150 pM JAK2 enzyme, 30 μM ATP, 80 nM Tyk2 peptide substrate, 60 minutes, room temperature; read-out: JAK inhibitory activity IC50. The protocol: JAK2 kinase activity was determined by measuring the kinase's ability to phosphorylate synthetic tyrosine residues within a generic polypeptide substrate using an Amplified Luminescent Proximity Assay (Alphascreen) technology (PerkinElmer, 549 Albany Street, Boston, Mass.).
To measure JAK2 kinase activity, a commercially available purified enzyme may be used. The enzyme may be C-terminal His6-tagged, recombinant, human JAK2, amino acids 808-end, (Genbank Accession number NM 004972) expressed by baculovirus in Sf21 cells (Upstate Biotechnology MA). After incubation of the kinase with a biotinylated substrate and adenosine triphosphate (ATP) for 60 minutes at room temperature, the kinase reaction may be stopped by the addition of 30 mM ethylenediaminetetraacetic acid (EDTA). The reaction may be performed in 384 well microtitre plates and the reaction products may be detected with the addition of streptavidin coated Donor Beads and phosphotyrosine-specific antibodies coated Acceptor Beads using the EnVision Multilabel Plate Reader after an overnight incubation at room temperature.
(Bead proximity is the source of the signal in Alpha formats.)
For `Cc1cnc(Nc2nc(N[C@@H](C)c3ccc(F)cc3)ncc2Cl)s1` [Example 1, 5-Chloro-N^2-[(1S)-1-(4-fluorophenyl]ethyl)-N^4-(5-methyl-1,3-thiazol-2-yl)pyrimidine-2,4-diamine], the 50% inhibitory concentration (IC50) worked out at 6 nM.

As for `COC(=O)c1cnc(Nc2nc(N[C@@H](C)c3ccc(F)cc3)ncc2Cl)s1` [Example 2, Methyl 2-[(5-chloro-2-{[(1S)-1-(4-fluorophenyl)ethyl]amino}pyrimidin-4-yl)amino]-1,3-thiazole-5-carboxylate], the IC50 is 170 nM.

Turning to `Cc1cnc(Nc2nc(N[C@@H](C)c3ccc(F)cn3)ncc2Cl)s1` [Example 3, 5-Chloro-N^2-[(1S)-1-(5-fluoropyridin-2-yl)ethyl]-N^4-(5-methyl-1,3-thiazol-2-yl)pyrimidine-2,4-diamine], the IC50 was determined as 902 nM.

Take `Cc1cnc(Nc2nc(N[C@@H](C)c3ncc(F)cn3)nc(N3CCOCC3)c2F)s1` [Example 4, 5-Fluoro-N^2-[(1S)-1-(5-fluoropyrimidin-2-yl)ethyl]-N^4-(5-methyl-1,3-thiazol-2-yl)-6-morpholin-4-ylpyrimidine-2,4-diamine]: the IC50 came out at 3 nM.

As for `Cc1cnc(Nc2cc(N3CCN(C)CC3)nc(N[C@@H](C)c3ccc(F)cn3)n2)s1` [Example 5, N^2-[(S)-1-(5-Fluoro-pyridin-2-yl)-ethyl]-6-(4-methyl-piperazin-1-yl)-N^4-(5-methyl-thiazol-2-yl)-pyrimidine-2,4-diamine], the IC50 is 3 nM.

In the case of `C[C@H](Nc1nc(Nc2ncc(C#N)s2)cc(N2CCOCC2)n1)c1ccc(F)cn1` [Example 8, 2-[(2-{[(1S)-1-(5-Fluoropyridin-2-yl)ethyl]amino}-6-morpholin-4-ylpyrimidin-4-yl)amino]-1,3-thiazole-5-carbonitrile], the IC50 was determined as 3 nM.

Regarding `COc1cc(Nc2ncc(C)s2)nc(N[C@@H](C)c2ncc(F)cn2)n1` [Example 10, (S)—N^2-(1-(5-Fluoropyrimidin-2-yl)ethyl)-6-methoxy-N^4-(5-methylthiazol-2-yl)pyrimidine-2,4-diamine], the IC50 is 3 nM.

What is called IC50 is the concentration at which inhibition is half-maximal.
